# Reference: patent US11377427B2, “Triazoles for regulating intracellular calcium homeostasis” (UNIVERSIDAD DEL PAIS VASCO, priority 2016, dated 2022)
# Assays:
# [1] = tested on: fibers isolated from mouse flexor digitorum brevis muscle (dystrophic MDX fibers); assay: Baseline intracellular calcium levels in mouse muscle fibers (Fura 2-AM); assay type: cell-based; details: 150 nM, overnight treatment; FIG. 2
# Method: Fibers isolated from mouse flexor digitorum brevis muscle were cultured overnight in the presence or absence of compounds AHK1 and AHK2 at a concentration of 150 nM. Baseline intracellular calcium levels were evaluated by means of incubating the fibers with Fura 2-AM ratiometric fluorochrome (4 μM) and pluronic acid (0.02%) for 30 minutes at 37° C., in the culture medium. The fibers were viewed with a high-resolution digital camera and intracellular [Ca^2+] was estimated by means of a 340 nm/380 nm excitation ratio.
# mdx mice [2] = assay: Grip strength of dystrophic mdx mice; assay type: in vivo, mouse; details: 0.25 mg/mL in drinking water, one-month old mdx mice
# Method: One-month old male dystrophic mdx mice supplied by Jackson Laboratory (https://www.jax.org/strain/001801) were used. The biological assays for measuring the effect of the Ahulken (AHK) compounds on muscle function were performed with one-month old mice, whereas the in vivo assays for determining the effect on the heart and CNS were performed with four-month old mice. The one-month old mice were treated with compound AHK1 or compound AHK2 for 5 weeks, where said compounds were administered in drinking water at a concentration of 0.25 mg/mL. The muscle strength of the front paws was measured every week using a grip strength meter and the obtained value was normalized by the body weight of the animal. To that end, the indications described in the TREAT-NMD Neuromuscular Network protocol (http://www.treat-nmd.eu/downloads/file/sops/dmd/MDX/DMD_M.2.2.001.pdf) were followed.
# [3] = tested on: tibialis anterior muscle of mdx mice; assay: Gene expression pattern of tibialis anterior muscle of mdx mice (RT Profiler PCR Array); assay type: in vivo, mouse
# Method: In turn, the biochemical analysis of the tibialis anterior muscle was performed by means of RNA extraction and expression pattern analysis in control mice, mdx mice and mice subjected to different treatments. To that end, the […] skeletal muscle, myogenesis and myopathy RT Profiler PCR Array (PAHS-099Z, QIAGEN) was used, using cDNA mixtures of at least 3 mice per group. The expression profile of 84 genes involved in physiopathological mechanisms of the skeletal muscle was thus analyzed. The experiments were conducted in 7300 Real-Time PCR equipment (Applied Biosystems) and the results obtained were analyzed using QIAGEN online software (http://www.sabiosciences.com/dataanalysis.php).
# mdx mice [4] = assay: Muscle degeneration/regeneration: percentage of central nuclei in muscle cryosections of mdx mice; assay type: in vivo, mouse; details: 5-week treatment of mdx mice; 0.25 mg/mL in drinking water; FIG. 5
# Method: After concluding the 5-week treatment, the tibialis anterior muscle was obtained and processed for subsequent biochemical and immunohistological analysis to determine the degree of muscle damage. Cell-death derived regeneration was determined in muscle cryosections by means of quantifying the percentage of central nuclei using standard immunofluorescence techniques for detecting collagen IV and cell nuclei.
# [5] = molecular target: T1, RyR1-calstabin1 interaction (Homo sapiens, UniProt P21817+P62942); assay: RyR1-calstabin1 interaction by in situ PLA in human myotubes under SIN1 nitro-oxidative stress; assay type: cell-based; details: pre-treated 12 hours at 150 nM; SIN1 5 mM 30 minutes; FIG. 3
# T1 construct: endogenous in cells; host or cells: LHCN-M2 human myotubes (differentiated for 9 days)
# Method: This assay was carried out in human control myotubes LHCN-M2 after 9 days in differentiation medium. Said myotubes were pre-treated for 12 hours with compounds AHK1 and AHK2 at a concentration of 150 nM. After treatment, the myotubes were subjected to peroxynitrite-induced nitro-oxidative stress by means of the addition of SIN1 (5 mM) for 30 minutes. RyR1-calstabin colocalization was analyzed by means of the in situ proximity ligation technique (in situ PLA) for which Sigma's Duolink II Network Fluorescence Kit and RyR1- and calstabin 1-specific antibodies were used. This technique allows detecting the exact location of two antigens located at a distance less than 40 nm from one another. To determine RyR1-calstabin-1 colocalization, 3 photographs were quantified for each condition with about 9 myotubes per field, using Image J computer software (http://rsb.info.nih.gov/ij/download.html). The colocalization area in each image was normalized to the myosin expression area, which was determined by means of immunofluorescence with a fluorescein-conjugated specific antibody.
# [6] = tested on: human control myotubes LHCN-M2; assay: In vitro toxicity in human myotubes, CytoTox 96 colorimetric assay; assay type: cell-based; details: concentrations between 10 nM and 2 mM; 24 hours of incubation; FIG. 1
# Method: These assays were carried out in human control myotubes LHCN-M2 after 14 days in differentiation medium. To determine the toxicity of the different analyzed compounds, particularly AHK1 and AHK2 according to the invention, these compounds were added to the culture medium for 24 hours at 37° C. at different concentrations (0-2 mM). For comparison purposes, the same assay was performed by adding reference compound S-107. Cell viability was determined by means of Cytotox 96 (Promega) colorimetric assay following instructions in the manual.
# T1 sequence (P21817 whole entry): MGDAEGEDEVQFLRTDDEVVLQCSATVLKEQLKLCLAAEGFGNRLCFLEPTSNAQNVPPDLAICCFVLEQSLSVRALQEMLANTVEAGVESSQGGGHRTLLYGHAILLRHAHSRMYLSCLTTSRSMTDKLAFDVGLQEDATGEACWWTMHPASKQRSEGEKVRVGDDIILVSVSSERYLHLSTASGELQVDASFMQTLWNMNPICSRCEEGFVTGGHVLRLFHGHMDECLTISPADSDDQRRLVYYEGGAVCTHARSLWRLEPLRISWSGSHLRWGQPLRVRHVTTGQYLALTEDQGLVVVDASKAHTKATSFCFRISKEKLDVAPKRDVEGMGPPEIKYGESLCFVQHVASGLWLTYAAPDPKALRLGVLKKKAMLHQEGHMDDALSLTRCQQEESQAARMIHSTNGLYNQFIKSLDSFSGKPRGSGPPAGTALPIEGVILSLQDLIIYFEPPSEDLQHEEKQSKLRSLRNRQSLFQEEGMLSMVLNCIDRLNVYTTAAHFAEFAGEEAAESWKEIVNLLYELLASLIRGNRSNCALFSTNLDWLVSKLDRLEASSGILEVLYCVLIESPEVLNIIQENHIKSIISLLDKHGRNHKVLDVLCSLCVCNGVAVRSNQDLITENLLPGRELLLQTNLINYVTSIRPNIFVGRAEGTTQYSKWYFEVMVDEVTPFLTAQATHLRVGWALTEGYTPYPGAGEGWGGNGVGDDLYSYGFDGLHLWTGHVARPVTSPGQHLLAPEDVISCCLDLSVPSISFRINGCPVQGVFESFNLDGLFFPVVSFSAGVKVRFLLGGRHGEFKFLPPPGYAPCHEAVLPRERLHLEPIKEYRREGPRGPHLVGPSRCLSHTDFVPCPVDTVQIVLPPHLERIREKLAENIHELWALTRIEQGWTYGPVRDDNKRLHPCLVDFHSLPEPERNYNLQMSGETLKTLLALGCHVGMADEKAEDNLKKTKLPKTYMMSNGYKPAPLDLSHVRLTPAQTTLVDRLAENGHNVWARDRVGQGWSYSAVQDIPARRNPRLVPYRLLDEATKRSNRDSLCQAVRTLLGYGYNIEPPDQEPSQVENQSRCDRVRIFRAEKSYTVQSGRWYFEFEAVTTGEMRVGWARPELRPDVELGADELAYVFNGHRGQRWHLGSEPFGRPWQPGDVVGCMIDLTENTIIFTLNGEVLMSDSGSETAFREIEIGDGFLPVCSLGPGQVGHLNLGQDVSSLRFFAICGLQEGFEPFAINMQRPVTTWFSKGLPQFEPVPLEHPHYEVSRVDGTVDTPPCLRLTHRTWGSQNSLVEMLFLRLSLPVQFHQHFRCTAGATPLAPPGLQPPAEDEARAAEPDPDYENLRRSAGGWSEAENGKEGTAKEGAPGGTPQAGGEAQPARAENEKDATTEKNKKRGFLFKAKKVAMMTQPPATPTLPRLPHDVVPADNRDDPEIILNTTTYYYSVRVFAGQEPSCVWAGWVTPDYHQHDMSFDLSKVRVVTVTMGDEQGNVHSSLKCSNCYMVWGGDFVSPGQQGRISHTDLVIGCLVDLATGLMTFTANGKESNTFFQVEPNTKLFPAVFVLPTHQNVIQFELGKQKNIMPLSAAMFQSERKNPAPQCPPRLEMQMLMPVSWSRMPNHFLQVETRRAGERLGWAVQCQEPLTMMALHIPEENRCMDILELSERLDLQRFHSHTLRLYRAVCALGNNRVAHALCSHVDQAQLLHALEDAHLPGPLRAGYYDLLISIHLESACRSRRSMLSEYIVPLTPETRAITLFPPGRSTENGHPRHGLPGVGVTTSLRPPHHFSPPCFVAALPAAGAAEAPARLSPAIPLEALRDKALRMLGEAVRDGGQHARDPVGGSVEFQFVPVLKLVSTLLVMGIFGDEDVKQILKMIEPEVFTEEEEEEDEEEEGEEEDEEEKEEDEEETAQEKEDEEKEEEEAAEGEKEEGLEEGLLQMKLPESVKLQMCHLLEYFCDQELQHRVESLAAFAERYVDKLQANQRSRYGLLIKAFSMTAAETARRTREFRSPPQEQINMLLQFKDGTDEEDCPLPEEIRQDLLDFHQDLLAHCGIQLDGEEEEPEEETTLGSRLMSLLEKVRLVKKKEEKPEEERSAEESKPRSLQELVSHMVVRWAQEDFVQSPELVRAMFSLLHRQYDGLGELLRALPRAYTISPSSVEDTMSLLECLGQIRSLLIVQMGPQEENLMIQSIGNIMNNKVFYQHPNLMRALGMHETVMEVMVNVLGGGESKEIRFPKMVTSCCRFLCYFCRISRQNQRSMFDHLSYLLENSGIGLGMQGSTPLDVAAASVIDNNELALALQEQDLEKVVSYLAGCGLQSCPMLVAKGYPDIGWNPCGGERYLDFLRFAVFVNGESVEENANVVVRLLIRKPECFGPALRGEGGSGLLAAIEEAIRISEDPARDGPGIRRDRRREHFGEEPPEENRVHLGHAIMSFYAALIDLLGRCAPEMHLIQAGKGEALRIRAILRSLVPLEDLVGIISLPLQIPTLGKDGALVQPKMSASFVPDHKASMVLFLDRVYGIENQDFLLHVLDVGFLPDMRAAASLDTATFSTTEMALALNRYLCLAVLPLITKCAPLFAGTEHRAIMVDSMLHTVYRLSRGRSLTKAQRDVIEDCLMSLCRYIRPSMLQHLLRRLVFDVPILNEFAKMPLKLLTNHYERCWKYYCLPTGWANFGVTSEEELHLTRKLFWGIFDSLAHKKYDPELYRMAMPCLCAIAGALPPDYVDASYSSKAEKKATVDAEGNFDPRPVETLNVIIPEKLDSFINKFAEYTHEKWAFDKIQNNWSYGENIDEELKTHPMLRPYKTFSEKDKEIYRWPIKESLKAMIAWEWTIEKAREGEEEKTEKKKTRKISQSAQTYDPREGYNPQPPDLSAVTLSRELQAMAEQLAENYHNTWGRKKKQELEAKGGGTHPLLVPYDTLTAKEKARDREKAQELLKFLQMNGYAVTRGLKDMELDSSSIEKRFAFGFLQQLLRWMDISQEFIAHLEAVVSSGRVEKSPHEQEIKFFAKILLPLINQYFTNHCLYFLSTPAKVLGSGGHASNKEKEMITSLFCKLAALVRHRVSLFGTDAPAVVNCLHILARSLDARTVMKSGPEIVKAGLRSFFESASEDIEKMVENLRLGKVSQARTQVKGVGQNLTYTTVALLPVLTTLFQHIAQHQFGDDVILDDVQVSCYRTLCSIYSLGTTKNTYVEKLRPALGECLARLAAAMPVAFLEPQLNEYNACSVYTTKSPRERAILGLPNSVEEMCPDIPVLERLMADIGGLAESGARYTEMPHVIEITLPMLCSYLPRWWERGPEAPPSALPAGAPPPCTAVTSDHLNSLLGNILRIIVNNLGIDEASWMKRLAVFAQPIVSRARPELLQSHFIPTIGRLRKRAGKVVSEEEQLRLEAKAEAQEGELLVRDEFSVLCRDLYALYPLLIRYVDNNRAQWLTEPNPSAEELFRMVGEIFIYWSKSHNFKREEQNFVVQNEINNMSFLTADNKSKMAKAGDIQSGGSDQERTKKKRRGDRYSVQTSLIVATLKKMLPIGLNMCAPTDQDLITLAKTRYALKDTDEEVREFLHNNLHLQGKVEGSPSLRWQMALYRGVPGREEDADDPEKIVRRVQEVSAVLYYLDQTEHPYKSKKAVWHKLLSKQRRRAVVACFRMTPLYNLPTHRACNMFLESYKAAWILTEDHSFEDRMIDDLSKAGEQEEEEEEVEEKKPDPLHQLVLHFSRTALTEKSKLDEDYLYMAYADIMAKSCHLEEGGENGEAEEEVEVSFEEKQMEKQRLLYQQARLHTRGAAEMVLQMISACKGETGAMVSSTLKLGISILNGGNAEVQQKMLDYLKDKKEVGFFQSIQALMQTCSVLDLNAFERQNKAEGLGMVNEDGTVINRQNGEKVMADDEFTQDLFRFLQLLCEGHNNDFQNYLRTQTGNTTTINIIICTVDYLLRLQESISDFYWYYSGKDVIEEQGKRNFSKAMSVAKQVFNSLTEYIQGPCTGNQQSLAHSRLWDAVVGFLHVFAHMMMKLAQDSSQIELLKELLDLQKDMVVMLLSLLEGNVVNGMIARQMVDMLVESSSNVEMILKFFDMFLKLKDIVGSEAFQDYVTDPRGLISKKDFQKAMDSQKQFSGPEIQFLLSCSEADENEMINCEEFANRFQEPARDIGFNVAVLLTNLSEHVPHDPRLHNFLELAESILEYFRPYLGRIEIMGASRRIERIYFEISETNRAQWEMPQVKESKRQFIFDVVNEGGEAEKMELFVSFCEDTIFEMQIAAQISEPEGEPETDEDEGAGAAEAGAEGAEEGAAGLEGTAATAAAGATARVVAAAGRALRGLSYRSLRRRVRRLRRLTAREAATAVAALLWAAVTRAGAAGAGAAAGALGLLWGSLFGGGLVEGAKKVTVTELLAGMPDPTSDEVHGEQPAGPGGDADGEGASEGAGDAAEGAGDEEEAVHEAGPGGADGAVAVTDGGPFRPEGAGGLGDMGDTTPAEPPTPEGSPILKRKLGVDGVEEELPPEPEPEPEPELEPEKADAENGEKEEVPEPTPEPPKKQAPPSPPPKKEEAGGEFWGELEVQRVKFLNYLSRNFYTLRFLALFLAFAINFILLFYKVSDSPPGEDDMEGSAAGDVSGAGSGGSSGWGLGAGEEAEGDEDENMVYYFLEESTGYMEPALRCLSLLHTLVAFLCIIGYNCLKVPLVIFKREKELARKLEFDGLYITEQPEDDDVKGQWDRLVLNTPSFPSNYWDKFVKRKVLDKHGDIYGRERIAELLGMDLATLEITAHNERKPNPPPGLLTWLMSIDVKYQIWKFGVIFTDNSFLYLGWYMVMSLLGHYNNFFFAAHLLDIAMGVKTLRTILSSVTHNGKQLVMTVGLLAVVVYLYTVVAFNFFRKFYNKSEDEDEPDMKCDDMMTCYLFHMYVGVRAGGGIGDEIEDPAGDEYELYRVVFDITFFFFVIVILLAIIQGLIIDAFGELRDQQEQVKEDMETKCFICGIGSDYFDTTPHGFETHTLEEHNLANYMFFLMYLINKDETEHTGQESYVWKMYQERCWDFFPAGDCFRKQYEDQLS
# T1 sequence (P62942 2-108 limits assumed): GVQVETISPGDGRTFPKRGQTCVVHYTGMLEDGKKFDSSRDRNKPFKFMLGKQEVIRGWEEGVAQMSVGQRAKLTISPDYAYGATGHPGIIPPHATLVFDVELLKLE
structure (smiles),measurement,setting,value
"COc1cccc(SCc2cn(CC(=O)O)nn2)c1 [AHK1, 1-carboxymethyl-4-[3-(methoxy)phenylthiomethyl]-1H-1,2,3-triazole]",intracellular calcium levels at rest in MDX fibers,[1],brought intracellular calcium levels back to the control levels
same,grip strength compared to untreated littermates,mdx mice [2]; after 2 weeks of treatment,increased significantly
same,increase of muscle strength,"mdx mice [2]; after 5 weeks of treatment, FIG. 4",20%
same,"Ratio of change vs. control, Akt1","[3]; gene Akt1, MDX + AHK1, 5 weeks, tibialis anterior, untreated MDX 2.63",1.42
same,"Ratio of change vs. control, Bcl2","[3]; gene Bcl2, MDX + AHK1, 5 weeks, tibialis anterior, untreated MDX 1.94",1.05
same,"Ratio of change vs. control, Bmp4","[3]; gene Bmp4, MDX + AHK1, 5 weeks, tibialis anterior, untreated MDX 1.93",2.08
same,"Ratio of change vs. control, Capn2","[3]; gene Capn2, MDX + AHK1, 5 weeks, tibialis anterior, untreated MDX 2.90",1.75
same,"Ratio of change vs. control, Casp3","[3]; gene Casp3, MDX + AHK1, 5 weeks, tibialis anterior, untreated MDX 10.28",5.27
same,"Ratio of change vs. control, Cast","[3]; gene Cast, MDX + AHK1, 5 weeks, tibialis anterior, untreated MDX 1.86",1.49
same,"Ratio of change vs. control, Cav3","[3]; gene Cav3, MDX + AHK1, 5 weeks, tibialis anterior, untreated MDX 3.28",1.68
same,"Ratio of change vs. control, Cryab","[3]; gene Cryab, MDX + AHK1, 5 weeks, tibialis anterior, untreated MDX 3.08",1.50
same,"Ratio of change vs. control, Ctnnb1","[3]; gene Ctnnb1, MDX + AHK1, 5 weeks, tibialis anterior, untreated MDX 1.79",1.27
same,"Ratio of change vs. control, Dag1","[3]; gene Dag1, MDX + AHK1, 5 weeks, tibialis anterior, untreated MDX 2.27",1.23
same,"Ratio of change vs. control, Des","[3]; gene Des, MDX + AHK1, 5 weeks, tibialis anterior, untreated MDX 2.14",1.53
same,"Ratio of change vs. control, Dysf","[3]; gene Dysf, MDX + AHK1, 5 weeks, tibialis anterior, untreated MDX 2.15",1.28
same,"Ratio of change vs. control, Foxo3","[3]; gene Foxo3, MDX + AHK1, 5 weeks, tibialis anterior, untreated MDX 1.76",1.14
same,"Ratio of change vs. control, Igf1","[3]; gene Igf1, MDX + AHK1, 5 weeks, tibialis anterior, untreated MDX 2.87",2.07
same,"Ratio of change vs. control, Igf2","[3]; gene Igf2, MDX + AHK1, 5 weeks, tibialis anterior, untreated MDX 22.31",9.78
same,"Ratio of change vs. control, Igfbp3","[3]; gene Igfbp3, MDX + AHK1, 5 weeks, tibialis anterior, untreated MDX 1.77",1.34
same,"Ratio of change vs. control, Igfbp5","[3]; gene Igfbp5, MDX + AHK1, 5 weeks, tibialis anterior, untreated MDX 2.52",1.43
same,"Ratio of change vs. control, Ikbkb","[3]; gene Ikbkb, MDX + AHK1, 5 weeks, tibialis anterior, untreated MDX 2.72",1.62
same,"Ratio of change vs. control, Il1b","[3]; gene Il1b, MDX + AHK1, 5 weeks, tibialis anterior, untreated MDX 17.77",2.82
same,"Ratio of change vs. control, Il6","[3]; gene Il6, MDX + AHK1, 5 weeks, tibialis anterior, untreated MDX 32.72",9.76
same,"Ratio of change vs. control, Lmna","[3]; gene Lmna, MDX + AHK1, 5 weeks, tibialis anterior, untreated MDX 5.29",2.52
same,"Ratio of change vs. control, Mapk3","[3]; gene Mapk3, MDX + AHK1, 5 weeks, tibialis anterior, untreated MDX 2.61",1.69
same,"Ratio of change vs. control, Mmp9","[3]; gene Mmp9, MDX + AHK1, 5 weeks, tibialis anterior, untreated MDX 4.51",2.01
same,"Ratio of change vs. control, Musk","[3]; gene Musk, MDX + AHK1, 5 weeks, tibialis anterior, untreated MDX 3.51",2.00
same,"Ratio of change vs. control, Myf5","[3]; gene Myf5, MDX + AHK1, 5 weeks, tibialis anterior, untreated MDX 3.40",2.13
same,"Ratio of change vs. control, Myod1","[3]; gene Myod1, MDX + AHK1, 5 weeks, tibialis anterior, untreated MDX 4.27",1.28
same,"Ratio of change vs. control, Myog","[3]; gene Myog, MDX + AHK1, 5 weeks, tibialis anterior, untreated MDX 17.36",3.24
same,"Ratio of change vs. control, Nfkb1","[3]; gene Nfkb1, MDX + AHK1, 5 weeks, tibialis anterior, untreated MDX 2.45",1.67
same,"Ratio of change vs. control, Pax3","[3]; gene Pax3, MDX + AHK1, 5 weeks, tibialis anterior, untreated MDX 2.16",2.48
same,"Ratio of change vs. control, Pax7","[3]; gene Pax7, MDX + AHK1, 5 weeks, tibialis anterior, untreated MDX 3.82",2.55
same,"Ratio of change vs. control, Ppargc1b","[3]; gene Ppargc1b, MDX + AHK1, 5 weeks, tibialis anterior, untreated MDX 1.77",1.23
same,"Ratio of change vs. control, Prkaa1","[3]; gene Prkaa1, MDX + AHK1, 5 weeks, tibialis anterior, untreated MDX 2.33",1.55
same,"Ratio of change vs. control, Prkag3","[3]; gene Prkag3, MDX + AHK1, 5 weeks, tibialis anterior, untreated MDX 2.52",2.68
same,"Ratio of change vs. control, Rhoa","[3]; gene Rhoa, MDX + AHK1, 5 weeks, tibialis anterior, untreated MDX 2.30",1.80
same,"Ratio of change vs. control, Rps6kb1","[3]; gene Rps6kb1, MDX + AHK1, 5 weeks, tibialis anterior, untreated MDX 1.77",1.25
same,"Ratio of change vs. control, Tgfb1","[3]; gene Tgfb1, MDX + AHK1, 5 weeks, tibialis anterior, untreated MDX 6.51",3.61
same,"Ratio of change vs. control, Tnf","[3]; gene Tnf, MDX + AHK1, 5 weeks, tibialis anterior, untreated MDX 15.01",10.27
same,"Ratio of change vs. control, Tnnc1","[3]; gene Tnnc1, MDX + AHK1, 5 weeks, tibialis anterior, untreated MDX 25.00",4.53
same,"Ratio of change vs. control, Tnnt1","[3]; gene Tnnt1, MDX + AHK1, 5 weeks, tibialis anterior, untreated MDX 12.09",3.37
same,"Ratio of change vs. control, Utrn","[3]; gene Utrn, MDX + AHK1, 5 weeks, tibialis anterior, untreated MDX 2.03",1.35
same,number of genes the expression of which was increased with respect to control (at least 1.75-fold),"[3]; mdx mice treated 5 weeks, 84 genes analyzed, 40 in untreated mdx",20
same,percentage of central nuclei,mdx mice [4],significantly reduced
same,dissociation of the RyR1-Calst1 complex in the presence of SIN1,[5],partially prevented
same,in vitro acute toxicity against human myotubes,[6],do not show in vitro acute toxicity
